Holding throughout (format): biochemical
Test [1] is described as follows: Identification of oxidation resistance by ABTS+ method (Trolox standard). The arrangement: Total antioxidant capacity: unit not given here. Conditions: for Total antioxidant capacity: ABTS+ method, sample 5 mg/mL, Trolox standard curve, 734 nm; for Increased multiple, compared with selenium-chelating pea oligopeptide: ratio of total antioxidant capacity. The text has this:
9.2 Identification of Oxidation Resistance of Peptide Segment

Test [2] in a line: Determination of capacity to scavenge DPPH free radicals. Conditions: positive control; FIG. 10. The method, then: 8.1 Determination of Capacity to Scavenge DPPH Free Radicals
Samples in different concentrations are taken and mixed with DPPH-anhydrous ethanol solution ([…]) in a volume ratio of 1:1, and stored for 30 min under a dark condition, and the absorbance of the mixed solution is measured at 517 nm in ultraviolet-visible spectrum, and recorded as Ai. Correspondingly, sample solutions in different mass concentrations are evenly mixed with anhydrous ethanol solution in a volume ratio of 1:1, and stored for 30 min under a dark condition at room temperature, and the absorbance of the mixed solution is measured at 517 nm in ultraviolet-visible spectrum, and recorded as Aj. Distilled water is evenly mixed with DPPH-anhydrous ethanol solution ([…]) in a volume ratio of 1:1, and stored for 30 min under a dark condition at room temperature, and the absorbance is measured at 517 nm in ultraviolet-visible spectrum, and recorded as Ac. Experiment of each group is repeated three times, and average values are obtained and standard deviations are calculated. The sodium selenite and the pea oligopeptide are used as raw material controls before chelation, and ascorbic acid is used as a positive control, the scavenging rate of the sample on DPPH free radicals is calculated according to the following formula:
(§1) [formula] 8.2 Determination of Capacity to Scavenge OH Free Radicals
A general note: The DPPH test is a chemical assay of radical scavenging.

Test [3] can be described thus: Determination of capacity to scavenge OH free radicals. Conditions: positive control; FIG. 12. Here is the method:
as §1
Sample solutions in different concentrations are taken and evenly mixed with FeSO4 ([…]) and salicylic acid-anhydrous ethanol solution ([…]) in a volume ratio of 1:2:2, the reaction is started with 1 volume of H2O2 solution ([…]), reacting in a water bath at 37° C. for 1 h, and the absorbance is measured at 510 nm in ultraviolet-visible spectrum, and recorded as A2. Correspondingly, the H2O2 solution ([…]) is replaced with 1 volume of water, and the ratio of remaining reagents remains unchanged, reacting in a water bath at 37° C. for 1 h, and the absorbance is measured at 510 nm in ultraviolet-visible spectrum, and recorded as A20. The sample solution is replaced with distilled water, and the ratio of remaining reagents remains unchanged, reacting in a water bath at 37° C. for 1 h, and the absorbance is measured at 510 nm, and recorded as A02. Experiment of each group is repeated three times, and average values are obtained and standard deviations are calculated. The sodium selenite and the pea oligopeptide are used as raw material controls before chelation, and ascorbic acid is used as a positive control, the scavenging rate of the sample on OH free radicals is calculated according to the following formula:
(§2) [formula] 8.3 Determination of Reducing Capacity

Test [4] is described as follows: Determination of reducing capacity (K3[Fe(CN)6]/FeCl3, absorbance at 700 nm). Conditions: absorbance at 700 nm about 1.6; FIG. 14. Here is the method:
as §2
Sample solutions in different concentrations are taken and evenly mixed with phosphate buffer (0.2 mol/L, pH 6.6) and K3[Fe(CN)6] solution with a mass concentration of 1% in a volume ratio of 1:1:1, stored in a water bath at 50° C. for 10 min, and quickly cooled with cold water. 1 volume of trichloroacetic acid solution with a mass concentration of 10% is added, shaken well quickly and thoroughly under a dark condition, and then 1 volume of reaction mixture is taken out, and added with 1 volume of distilled water and 0.2 volume of FeCl3 solution with a mass concentration of 0.1%, and after shaking well quickly and thoroughly under a dark condition, standing for 10 min, the absorbance is measured at 700 nm, and recorded as A3. The sodium selenite and the pea oligopeptide are used as raw material controls before chelation, and ascorbic acid is used as an overall control, the absorbance A3 is directly used as a parameter of the reducing capacity of the sample. Experiment of each group is repeated three times, and average values are obtained and standard deviations are calculated.

No end group written: not given here.

In the case of “TGRGAP [standard synthetic peptide segment identified in the selenium-chelating pea oligopeptide]”, in test [1], the Total antioxidant capacity came to 3.25 and the “Increased multiple, compared with selenium-chelating pea oligopeptide” value (from here on “Increased multiple”) worked out at 0.06.

For “PPKIYP [standard synthetic peptide segment identified in the selenium-chelating pea oligopeptide]”, in test [1], the Total antioxidant capacity turned out to be 211.12 and the “Increased multiple” value is 3.90.

In test [1], “HQMPKP [standard synthetic peptide segment identified in the selenium-chelating pea oligopeptide]” displayed a Total antioxidant capacity of −9.53.

On to “Thr-Ser-Ser-Leu-Pro (TSSLP; listed as Pisum sativum) [standard synthetic peptide segment identified in the selenium-chelating pea oligopeptide]”, for which, in test [1], the Total antioxidant capacity is on record as 5.55 and the “Increased multiple” value is reported as 0.10.

In the case of `O=C1O[C@H]([C@@H](O)CO)C(O)=C1O` [ascorbic acid], in test [2], the “IC50 value of scavenging DPPH free radical” value came out at 4.85 ± 0.02 µg/mL. Also, the “IC50 value of scavenging OH free radical” value in test [3] is 1024.87 ± 5.96 µg/mL. In addition, the “Required concentration for absorbance value about 1.6 (reducing capacity)” value in test [4] was found to be 400 µg/mL.

The values are drawn from US12252555B2 (CHINA NATIONAL RESEARCH INSTITUTE OF FOOD & FERMENTATION …, priority 2018, dated 2025).
